Values quoted from earlier work, collected in US6025387A, “Gastroprotective flavone/flavanone compounds with therapeutic effect on inflammatory bowel disease” (Dong a Pharmaceutical Co., Ltd., priority 1996, dated 2000).

How the values were obtained:
[1] = system: gastric ulcer induced by NSAIDs; conditions: clinical; cited from earlier work
gastric mucosa = conditions: U.S. Pat. No. 5,399,584; cited from earlier work
experimental ulceration = conditions: various kinds of ulcerogens; cited from earlier work
leukocytes = conditions: cited from earlier work
[2] = system: epidermal cells of mucous membrane in gastrointestinal tracts; conditions: cited from earlier work
[3] = system: gastric mucosal damage induced by NSAIDs; conditions: NSAID-induced; cited from earlier work
[4] = system: gastritis and gastric ulcer; conditions: in vivo; cited from earlier work

## CCCCC(C)(O)C/C=C/[C@H]1[C@H](O)CC(=O)[C@@H]1CCCCCCC(=O)OC (mixture of isomers) [misoprostol]
[1]
  prevention of NSAID-induced gastric ulcer: prevented the gastric ulcer induced by NSAIDs

## COc1cccc2oc(-c3ccc(F)cc3)cc(=O)c12 [4'-fluoro-5-methoxy flavone]
Gastric mucosa
  protective effect on damage of gastric mucosa: protective effect on the damage of gastric mucosa

## CCCCC[C@H](O)/C=C/[C@H]1[C@H](O)CC(=O)[C@@H]1C/C=C\CCCC(=O)O [PGE2]
Experimental ulceration
  prevention of experimental ulceration: effectively prevent the experimental ulceration

## COc1ccc2c(c1)c(CC(=O)O)c(C)n2C(=O)c1ccc(Cl)cc1 [indomethacin]
leukocytes
  leukocyte adherence to vascular endothelium: induce adherence of leukocytes to the vascular endothelium

## COc1ccc2[nH]c([S+]([O-])Cc3ncc(C)c(OC)c3C)nc2c1 (stereo not shown) [omeprazole]
[2]
  effect of long-term administration to rats: caused dysplasia in epidermal cells of mucous membrane in gastrointestinal tracts

## catalase
[3]
  reduction of gastric mucosal damage: significantly reduce the extent of gastric mucosal damage induced by NSAIDs

## sucralfate
[4]
  frequency of recurrence: low frequency of recurrence
